In patent US20250381179A1, “CHROMAN-BASED COMPOUNDS FOR TREATING CANCER” (priority 2024, published 2025):
Entries after “also recorded” stand apart in the source; their conditions may differ.

Experiment: Phase 1 study: safety and tolerability (TEAEs, NCI CTCAE v5.0)
Experimental: The study employed an open-label, 3+3 design, with the option of adding backfill patients to each cohort cleared and deemed safe. […] Tumor responses were assessed every 2 cycles using RECIST v1.1 criteria. […] The study also involves an ongoing dose escalation study where participants receive 100 mg, 200 mg, 300 mg, 400 mg, and 600 mg once daily (QD) dose levels.
Safety was assessed through the analysis of the reported incidence of treatment-emergent AEs. Treatment-emergent AEs are those with an onset on or after the initiation of therapy and will be graded according to NCI CTCAE Version 5.0. Other safety endpoints, including laboratory results, vital signs, and ECG findings, were summarized for all patients in the Safety set.

[1] = Cohort 2/200 mg QD, patient 4, first listed event
[2] = Cohort 2/200 mg QD, patient 4, second listed event
[3] = Cohort 3/300 mg QD, patient 1, first listed event
[4] = Cohort 3/300 mg QD, patient 1, second listed event

**Q.** What does the source list for `O=C1CC[C@H](N2Cc3cc(N4CCN(CC5CCN(c6ccc([C@@H]7c8ccc(O)cc8OC[C@@H]7c7ccccc7)cc6F)CC5)CC4)ccc3C2=O)C(=O)N1` [compound (1-g), (S)-3-(5-(4-((1-(2-fluoro-4-((3S,4R)-7-hydroxy-3-phenylchroman-4-yl)phenyl)piperidin-4-yl)methyl)piperazin-1-yl)-1-oxoisoindolin-2-yl)piperidine-2,6-dione]?
**A.** Duration of TEAE leading to dose interruption: Pain in extremity [1]: 56 days; Related to Compound (1-g), TEAE leading to dose interruption: Pain in extremity [1]: No; CTCAE Grade of TEAE leading to dose interruption: Pain in extremity [2]: 2; Related to Compound (1-g), TEAE leading to dose interruption: Pain in extremity [2]: No; participants with TEAEs that led to dose interruption (Cohort 3 (300 mg QD)): 2 participants; CTCAE Grade of TEAE leading to dose interruption: Anaemia (Cohort 3/300 mg QD, patient 1): 3; Related to Compound (1-g), TEAE leading to dose interruption: Anaemia (Cohort 3/300 mg QD, patient 1): No; CTCAE Grade of TEAE leading to dose interruption: Acute kidney injury [3]: 3; Duration of TEAE leading to dose interruption: Acute kidney injury [3]: 6 days; Related to Compound (1-g), TEAE leading to dose interruption: Acute kidney injury [3]: No; CTCAE Grade of TEAE leading to dose interruption: Acute kidney injury [4]: 3; Duration of TEAE leading to dose interruption: Acute kidney injury [4]: 7 days; Related to Compound (1-g), TEAE leading to dose interruption: Acute kidney injury [4]: No; CTCAE Grade of TEAE leading to dose interruption: Muscular weakness (Cohort 3/300 mg QD, patient 2): 2; CTCAE Grade of TEAE leading to dose interruption: Upper respiratory tract infection (Cohort 3/300 mg QD, patient 2): 2; Duration of TEAE leading to dose interruption: Upper respiratory tract infection (Cohort 3/300 mg QD, patient 2): 8 days; Related to Compound (1-g), TEAE leading to dose interruption: Muscular weakness (Cohort 3/300 mg QD, patient 2): No; Related to Compound (1-g), TEAE leading to dose interruption: Upper respiratory tract infection (Cohort 3/300 mg QD, patient 2): No; participants with TEAEs that led to dose interruption (Cohort 4 and 5 (400, 600 mg QD)): No participant experienced TEAEs that led to dose interruption; Constipation, Related-TEAE All Grades (N = 37): 3 n (%); Constipation, Related-TEAE Grade ≥ 3 (N = 37): 0 n (%); Constipation, TEAE All Grades (N = 37): 4 (11) n (%); Constipation, TEAE Grade ≥ 3 (N = 37): 0 n (%); Dehydration, Related-TEAE All Grades (N = 37): 0 n (%); Dehydration, Related-TEAE Grade ≥ 3 (N = 37): 0 n (%); Dehydration, TEAE All Grades (N = 37): 5 (14) n (%); Dehydration, TEAE Grade ≥ 3 (N = 37): 2 (5) n (%); Fatigue, Related-TEAE All Grades (N = 37): 2 n (%); Fatigue, Related-TEAE Grade ≥ 3 (N = 37): 0 n (%); Fatigue, TEAE All Grades (N = 37): 6 (16) n (%); Fatigue, TEAE Grade ≥ 3 (N = 37): 1 (3) n (%); Grade 5 event of seizure (N = 37): 1 event; Hot flush, Related-TEAE All Grades (N = 37): 5 n (%); Hot flush, Related-TEAE Grade ≥ 3 (N = 37): 0 n (%); Hot flush, TEAE All Grades (N = 37): 5 (14) n (%); Hot flush, TEAE Grade ≥ 3 (N = 37): 0 n (%); Nausea, Related-TEAE All Grades (N = 37): 5 n (%); Nausea, Related-TEAE Grade ≥ 3 (N = 37): 0 n (%); Nausea, TEAE All Grades (N = 37): 7 (19) n (%); Nausea, TEAE Grade ≥ 3 (N = 37): 0 n (%); Neutrophil count decreased, Related-TEAE All Grades (N = 37): 4 n (%); Neutrophil count decreased, Related-TEAE Grade ≥ 3 (N = 37): 0 n (%); Neutrophil count decreased, TEAE All Grades (N = 37): 6 (16) n (%); Neutrophil count decreased, TEAE Grade ≥ 3 (N = 37): 1 (3) n (%); TEAE constipation, participants (N = 37): 10.8%; TEAE dehydration, participants (N = 37): 13.5%; TEAE fatigue, participants (N = 37): 16.2%; TEAE hot flush, participants (N = 37): 13.5%; TEAE nausea, participants (N = 37): 18.9%; TEAE neutrophil count decreased, participants (N = 37): 16.2%; compound-related SAEs (N = 37): No compound (1-g)-related SAEs were observed; deaths reported, all assessed as unrelated to compound (1-g) (N = 37): 3 deaths; dose reductions or treatment discontinuations due to TEAEs (N = 37): no dose reductions or treatment discontinuations due to TEAEs; grade of treatment-related AEs (N = 37): All treatment-related AEs were Grade 1 or 2; participants with at least a TEAE (N = 37): 78%; patients experiencing SAEs (nine SAEs) (N = 37): 8 patients; related TEAE hot flush, participants (N = 37): 13.5%; related TEAE nausea, participants (N = 37): 13.5%; related TEAE neutrophil count decrease, participants (N = 37): 10.8%; relatedness of TEAEs that led to dose interruption (N = 37): None of these were considered related to compound (1-g); participants with compound (1-g) related TEAEs (N = 37, fifteen participants): 40.5%; participants with Grade 23 TEAEs (N = 37, ten participants): 27.0%; Patients with Any Compound (1-g) related TEAE (Overall (N = 37)): 15 (40.5) n (%); Patients with Any TEAE (Overall (N = 37)): 29 (78.4) n (%); TEAE: Abdominal Distension (Overall (N = 37)): 1 (2.7) n (%); TEAE: Abdominal Pain (Overall (N = 37)): 2 (5.4) n (%); TEAE: Acute Kidney Injury (Overall (N = 37)): 1 (2.7) n (%); TEAE: Adrenal Insufficiency (Overall (N = 37)): 1 (2.7) n (%); TEAE: Alopecia (Overall (N = 37)): 1 (2.7) n (%); TEAE: Anaemia (Overall (N = 37)): 2 (5.4) n (%); TEAE: Anxiety (Overall (N = 37)): 1 (2.7) n (%); TEAE: Arthralgia (Overall (N = 37)): 2 (5.4) n (%); TEAE: Axillary Vein Thrombosis (Overall (N = 37)): 1 (2.7) n (%); TEAE: Back Pain (Overall (N = 37)): 3 (8.1) n (%); TEAE: Basal Cell Carcinoma (Overall (N = 37)): 1 (2.7) n (%); TEAE: Breast Pain (Overall (N = 37)): 1 (2.7) n (%); TEAE: Confusional State (Overall (N = 37)): 1 (2.7) n (%); TEAE: Constipation (Overall (N = 37)): 4 (10.8) n (%); TEAE: Cough (Overall (N = 37)): 1 (2.7) n (%); TEAE: Covid-19 Pneumonia (Overall (N = 37)): 1 (2.7) n (%); TEAE: Dehydration (Overall (N = 37)): 5 (13.5) n (%); TEAE: Diarrhoea (Overall (N = 37)): 3 (8.1) n (%); TEAE: Dizziness (Overall (N = 37)): 1 (2.7) n (%); TEAE: Dysgeusia (Overall (N = 37)): 1 (2.7) n (%); TEAE: Dyspepsia (Overall (N = 37)): 1 (2.7) n (%); TEAE: Dyspnoea (Overall (N = 37)): 3 (8.1) n (%); TEAE: Dysuria (Overall (N = 37)): 2 (5.4) n (%); TEAE: Eructation (Overall (N = 37)): 1 (2.7) n (%); TEAE: Fall (Overall (N = 37)): 2 (5.4) n (%); TEAE: Fatigue (Overall (N = 37)): 6 (16.2) n (%); TEAE: Flatulence (Overall (N = 37)): 2 (5.4) n (%); TEAE: Fracture (Overall (N = 37)): 1 (2.7) n (%); TEAE: Fungal Infection (Overall (N = 37)): 1 (2.7) n (%); TEAE: Haematoma (Overall (N = 37)): 1 (2.7) n (%); TEAE: Hot Flush (Overall (N = 37)): 5 (13.5) n (%); TEAE: Hyperglycaemia (Overall (N = 37)): 1 (2.7) n (%); TEAE: Hyperhidrosis (Overall (N = 37)): 3 (8.1) n (%); TEAE: Hypokalaemia (Overall (N = 37)): 2 (5.4) n (%); TEAE: Hypotension (Overall (N = 37)): 1 (2.7) n (%); TEAE: Influenza Like Illness (Overall (N = 37)): 1 (2.7) n (%); TEAE: Insomnia (Overall (N = 37)): 3 (8.1) n (%); TEAE: Lower Respiratory Tract Congestion (Overall (N = 37)): 1 (2.7) n (%); TEAE: Lymphocyte Count Decreased (Overall (N = 37)): 1 (2.7) n (%); TEAE: Muscle Spasm (Overall (N = 37)): 1 (2.7) n (%); TEAE: Muscular Weakness (Overall (N = 37)): 2 (5.4) n (%); TEAE: Musculoskeletal Stiffness (Overall (N = 37)): 1 (2.7) n (%); TEAE: Nail Disorder (Overall (N = 37)): 1 (2.7) n (%); TEAE: Nasal Congestion (Overall (N = 37)): 1 (2.7) n (%); TEAE: Nausea (Overall (N = 37)): 7 (18.9) n (%); TEAE: Neutrophil Count Decreased (Overall (N = 37)): 6 (16.2) n (%); TEAE: Oedema Peripheral (Overall (N = 37)): 2 (5.4) n (%); TEAE: Ophthalmic Migraine (Overall (N = 37)): 1 (2.7) n (%); TEAE: Oral Pain (Overall (N = 37)): 1 (2.7) n (%); TEAE: Pain In Extremity (Overall (N = 37)): 1 (2.7) n (%); TEAE: Pharyngitis (Overall (N = 37)): 1 (2.7) n (%); TEAE: Platelet Count Decreased (Overall (N = 37)): 2 (5.4) n (%); TEAE: Pleural Effusion (Overall (N = 37)): 1 (2.7) n (%); TEAE: Pneumonia (Overall (N = 37)): 2 (5.4) n (%); TEAE: Productive Cough (Overall (N = 37)): 1 (2.7) n (%); TEAE: Rash Maculo-Papular (Overall (N = 37)): 2 (5.4) n (%); TEAE: Rhinitis Allergic (Overall (N = 37)): 1 (2.7) n (%); TEAE: Rib Fracture (Overall (N = 37)): 1 (2.7) n (%); TEAE: Seizure (Overall (N = 37)): 1 (2.7) n (%); TEAE: Sepsis (Overall (N = 37)): 1 (2.7) n (%); TEAE: Tremor (Overall (N = 37)): 2 (5.4) n (%); TEAE: Upper Respiratory Tract Infection (Overall (N = 37)): 3 (8.1) n (%); TEAE: Urinary Tract Infection (Overall (N = 37)): 2 (5.4) n (%); TEAE: Vaginal Haemorrhage (Overall (N = 37)): 1 (2.7) n (%); TEAE: Vomiting (Overall (N = 37)): 2 (5.4) n (%); related TEAE: Alopecia (Overall (N = 37)): 1 (2.7) n (%); related TEAE: Arthralgia (Overall (N = 37)): 1 (2.7) n (%); related TEAE: Constipation (Overall (N = 37)): 3 (8.1) n (%); related TEAE: Diarrhea (Overall (N = 37)): 3 (8.1) n (%); related TEAE: Dysgeusia (Overall (N = 37)): 1 (2.7) n (%); related TEAE: Eructation (Overall (N = 37)): 1 (2.7) n (%); related TEAE: Fatigue (Overall (N = 37)): 2 (5.4) n (%); related TEAE: Flatulence (Overall (N = 37)): 1 (2.7) n (%); related TEAE: Hyperhidrosis (Overall (N = 37)): 1 (2.7) n (%); related TEAE: Nail Disorder (Overall (N = 37)): 1 (2.7) n (%); related TEAE: Platelet Count Decreased (Overall (N = 37)): 1 (2.7) n (%); related TEAE: Tremor (Overall (N = 37)): 1 (2.7) n (%); related TEAE: Vomiting (Overall (N = 37)): 1 (2.7) n (%); Compound (1-g) related TEAEs of CTCAE grade >=3 (all cohorts, N = 37): no Grade≥3 TEAEs were considered as related to compound (1-g); also recorded: No data meets output criteria; participants with TEAEs that led to dose interruption (all cohorts, N = 37): Nine; dose-related trend in incidence of related TEAEs (between 100 mg and 600 mg): No dose-related trends were evident; related TEAE: Hot Flush (human, in vivo): 5 (13.5) n (%); related TEAE: Nausea (human, in vivo): 5 (13.5) n (%); related TEAE: Neutrophil Count Decreased (human, in vivo): 4 (10.8) n (%)
